Laboratory results from US10941157B2, “Pesticidal compositions and uses thereof” (Gilead Apollo, LLC, priority 2015, dated 2021).
Values after ≈ are worked out from the molar mass of the structure shown.

How the values were obtained:
[1] = tested on: Collectotrichum graminicola (Cg); experiment: In vitro pathogen growth inhibition assay, Cg; assay type: cell-based; details: 48 h, ≥90% growth inhibition; 48 hours; vs 2% DMSO control; read-out: Compound Concentration (ppm) sufficient for ≥90% inhibition of Cg
Procedure, shortened: (§1)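 Spores in 17% V8 liquid medium, or 1.5 mm Rs mycelial plugs in ¼ PDB, incubated with compound; final concentration checked by OD600 for precipitation. OD readings at 24 and 48 h, blank-subtracted, plus visual ratings; value is concentration giving ≥90% growth inhibition.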

Phakopsora pachyrhizi = experiment: Foliar protection test for Asian soybean rust control; assay type: in vivo; details: foliar application to soybean (Glycine max AG4832), percent disease area evaluated 14 days later
[2] = tested on: Mycosphaerella graminicola (synthetic Septoria tritici); experiment: Foliar protection test for wheat septoria leaf blotch control; assay type: in vivo; details: foliar spray on Triticum aestivum cv. WinterHawk, inoculated 1 hour after treatment, evaluated 16 days later
Botrtyis cinerea (Bc) = experiment: In vitro pathogen growth inhibition assay, Bc; assay type: cell-based; details: 48 h, ≥90% growth inhibition; 48 hours; vs 2% DMSO control; read-out: Compound Concentration (ppm) sufficient for ≥90% inhibition of Bc
Procedure, shortened: as §1

Puccinia triticina = experiment: Foliar protection test for wheat leaf rust control; assay type: in vivo; details: foliar application to wheat (Triticum aestivum cv. Winterhawk), evaluated 10 days later
Septoria tritici (St) = experiment: In vitro pathogen growth inhibition assay, St; assay type: cell-based; details: Zymoseptoria tritici, 48 h, ≥90% growth inhibition; 48 hours; vs 2% DMSO control; read-out: Compound Concentration (ppm) sufficient for ≥90% inhibition of St
Procedure, shortened: as §1

Rhizoctonia solani (Rs) = experiment: In vitro pathogen growth inhibition assay, Rs (mycelial plugs); assay type: cell-based; details: Rhizoctonia solani, 48 h, ≥90% growth inhibition; mycelial plugs; 48 hours; vs 2% DMSO control; read-out: Compound Concentration (ppm) sufficient for ≥90% inhibition of Rs
Procedure, shortened: as §1

Diplodia maydis (Dm) = experiment: In vitro pathogen growth inhibition assay, Dm; assay type: cell-based; details: Stenocarpella maydis, 48 h, ≥90% growth inhibition; 48 hours; vs 2% DMSO control; read-out: Compound Concentration (ppm) sufficient for ≥90% inhibition of Dm
Procedure, shortened: as §1

[3] = tested on: Fusarium virguliforme (Fv); experiment: In vitro pathogen growth inhibition assay, Fv; assay type: cell-based; details: ≥90% growth inhibition, 48 hours, vs 2% DMSO control, read-out: Compound Concentration (ppm) sufficient for ≥90% inhibition of Fv
Procedure, shortened: as §1

[4] = tested on: Fusarium moniliforme (Fm); experiment: In vitro pathogen growth inhibition assay, Fm; assay type: cell-based; details: Fusarium verticillioides; ≥90% growth inhibition; 48 hours; vs 2% DMSO control; read-out: Compound Concentration (ppm) sufficient for ≥90% inhibition of Fm
Procedure, shortened: as §1

Fusarium graminearum = assay type: in vivo; details: spray on flowering Triticum aestivum cv. Samson, inoculated 24 hours after treatment, evaluated 14 days later
Sphaerotheca fuliginea = experiment: Foliar protection for cucumber powdery mildew control; assay type: in vivo; details: foliar spray on Cucumis sativus cv. Straight Eight, inoculated 24 hours after treatment, evaluated 7 days later
Method: Plants (Cucumis sativus cv. Straight Eight) were grown for 10 days in 2.5-inch square pots containing Metromix 200 medium amended with fertilizer. For propagation, plants were maintained in a growth chamber at conditions of 23 to 27° C., 16 hour light cycle, ambient humidity, and with sub-irrigation as needed. After inoculation with the pathogen of Sphaerotheca fuliginea, plants were kept at conditions of 23 to 27° C., 16 hour light cycle, 60% relative humidity, and with sub-irrigation as needed to facilitate infection and disease development. […] An atomizer was used for applying the solution onto both sides of the leaves until thoroughly wetted. […] At 24 hours after treatment, the plants were moved to a cooler chamber and inoculated by shaking well-colonized, untreated stock plants above the treated plants. This allowed producing a settling cloud of spores and resulting in uniform infection. Inoculated plants were kept near other sporulating stock plants to allow for infection of newly emerging leaves. Efficacy was evaluated in 7 days later by examining leaves for colonization and growth of mildew. Table 5 lists the results of cucumber powdery mildew control at a compound concentration of 10 ppm or lower.

[5] = tested on: Phytophthora capsici (Pc); experiment: In vitro pathogen growth inhibition assay, Pc; assay type: cell-based; details: 48 h, ≥90% growth inhibition, 48 hours, vs 2% DMSO control, read-out: Compound Concentration (ppm) sufficient for ≥90% inhibition of Pc
Procedure, shortened: as §1

[6] = tested on: Blumeria graminis f. sp. hordei; experiment: Foliar protection test for barley powdery mildew control; assay type: in vivo; details: foliar spray on Hordeum vulgare cv. Perry, inoculated 24 hours after treatment, evaluated 7 days later
Method: Plants (Hordeum vulgare cv. Perry) were grown for 6 days in 2-inch square pots containing Metromix 200 medium amended with fertilizer. […] After inoculation with the pathogen of Blumeria graminis f. sp. hordei, plants were kept at conditions of 20 to 22° C., 70% relative humidity, and 200 uM of light to facilitate infection and disease development. […] An atomizer was used for applying the solution onto both sides of the leaves until thoroughly wetted. […] At 24 hours after treatment, the plants were moved to a cooler chamber and inoculated by shaking well-colonized, untreated stock plants above the treated plants. This allowed producing a settling cloud of spores and resulting in uniform infection. Efficacy was evaluated in 7 days later by examining leaves for colonization and growth of mildew. Table 4 lists the results of barley powdery mildew control at a compound concentration of 10 ppm or lower.

Compound | IC90 [1] | Asian Soybean Rust Control at a compound concentration of 25 ppm or lower (Phakopsora pachyrhizi) | Septoria Leaf Blotch Control at a compound concentration of 25 ppm or lower [2] | IC90 (Botrtyis cinerea (Bc)) | Wheat Leaf Rust Control at a compound concentration of 10 ppm or lower (Puccinia triticina) | IC90 (Septoria tritici (St)) | IC90 (Rhizoctonia solani (Rs)) | IC90 (Diplodia maydis (Dm)) | IC90 [3] | IC90 [4] | Wheat Fusarium Head Blight Control at a compound concentration of 25 ppm or lower (Fusarium graminearum) | Cucumber Powdery Mildew Control at a compound concentration of 10 ppm or lower (Sphaerotheca fuliginea) | IC90 [5] | Barley Powdery Mildew Control at a compound concentration of 10 ppm or lower [6]
CCc1ccc(F)cc1[C@H](Cn1c(=O)n(C(C)(C)C(=O)NC(C)C)c(=O)c2c(C)c(-n3nccn3)sc21)OCCO [Compound I-246, (R)-2-(1-(2-(2-ethyl-5-fluorophenyl)-2-(2-hydroxyethoxy)ethyl)-5-methyl-2,4-dioxo-6-(2H-1,2,3-triazol-2-yl)-1,4-dihydrothieno[2,3-d]pyrimidin-3 (2H)-yl)-N-isopropyl-2-methylpropanamide] | 0.08 µg/mL (≈ 0.136 µM) | AA (≥85% control of Asian soybean rust) | A (from 70% to 84% control of wheat septoria leaf blotch) | 0.4 µg/mL (≈ 0.682 µM) | A (from 70% to 84% control of wheat leaf rust) | ≥ 2 µg/mL | 0.1 µg/mL (≈ 0.17 µM) | 0.4 µg/mL (≈ 0.682 µM) | 0.08 µg/mL (≈ 0.136 µM) | 0.08 µg/mL (≈ 0.136 µM) | B (from 50 to 69% control of wheat fusarium head blight) | AA (≥85% control of cucumber powdery mildew) | 10 µg/mL (≈ 17 µM) | A (from 70% to 84% control of barley powdery mildew)
CCNC(=O)C(C)(C)n1c(=O)c2c(C)c(-n3nccn3)sc2n(C[C@H](OCCC#N)c2ccccc2OC)c1=O [Compound I-208, (R)-2-(1-(2-(2-cyanoethoxy)-2-(2-methoxyphenyl)ethyl)-5-methyl-2,4-dioxo-6-(2H-1,2,3-triazol-2-yl)-1,4-dihydrothieno[2,3-d]pyrimidin-3 (2H)-yl)-N-ethyl-2-methylpropanamide] | 2 µg/mL (≈ 3.54 µM) | AA (≥85% control of Asian soybean rust) | AA (≥85% control of wheat septoria leaf blotch) | 0.4 µg/mL (≈ 0.707 µM) | AA (≥85% control of wheat leaf rust) | > 50 µg/mL | 0.08 µg/mL (≈ 0.141 µM) | 2 µg/mL (≈ 3.54 µM) | 0.4 µg/mL (≈ 0.707 µM) | 0.4 µg/mL (≈ 0.707 µM) | C (from 25 to 49% control of wheat fusarium head blight) | AA (≥85% control of cucumber powdery mildew) | > 50 µg/mL | AA (≥85% control of barley powdery mildew)
COc1ccc(F)cc1[C@H](Cn1c(=O)n(C(C)(C)C(=O)NC(C)C)c(=O)c2c(C)c(-n3cccn3)sc21)OC[C@H](C)C#N [Compound I-263, 2-(1-((R)-2-((R)-2-cyanopropoxy)-2-(5-fluoro-2-methoxyphenyl)ethyl)-5-methyl-2,4-dioxo-6-(1H-pyrazol-1-yl)-1,4-dihydrothieno[2,3-d]pyrimidin-3 (2H)-yl)-N-isopropyl-2-methylpropanamide] | 0.4 µg/mL (≈ 0.655 µM) | AA (≥85% control of Asian soybean rust) | D (<25% control of wheat septoria leaf blotch) | 0.4 µg/mL (≈ 0.655 µM) | AA (≥85% control of wheat leaf rust) | > 10 µg/mL | 0.4 µg/mL (≈ 0.655 µM) | 2 µg/mL (≈ 3.27 µM) | 0.4 µg/mL (≈ 0.655 µM) | ≥ 0.08 µg/mL | B (from 50 to 69% control of wheat fusarium head blight) | AA (≥85% control of cucumber powdery mildew) | ≥ 50 µg/mL | A (from 70% to 84% control of barley powdery mildew)
